Measurements from paper PMC2855122 (Journal of immunology (Baltimore, Md. : 1950), 2009).

System: HeLa-Kb-A3-47 cells
Assay: Cell-surface HLA-A3 level after transfection with ER targeted precursors
Format: cell-based
Details: GAP-A3 staining (Figure 7B)

RVCEKMALY [R-Y]
Surface expression of HLA-A3 after ER targeted peptide: increased the surface expression of HLA-A3
